The target of one experiment is T1, MRP2 (Homo sapiens, UniProt Q92887).
T1 construct: purchased Solvo Biotechnology, Budaors, Hungary; host or cells: Sf9 insect cells (membrane vesicles)
Kind of experiment: MRP2 inhibition, estradiol-17-beta-glucuronide transport in Sf9 membrane vesicles. It is filed as biochemical. As to conditions: E217βG 0.2 µM, single experiment in duplicate, tested 0.14–100 µM. The text has this: Chinese Hamster Ovary (CHO) cells were obtained from Professor B. Stieger’s laboratory at University of Zurich, Zurich, Switzerland. Madin-Darby Canine Kidney strain II (MDCKII) cells were obtained from Nederlands Kanker Instituut (NKI), Amsterdam, Netherlands. NTCP-CHO cells, BSEP and MRP2 membrane vesicles were developed and validated at Solvo Biotechnology, Budaors, Hungary.
BSEP and MRP2 inhibition was studied in membrane vesicles isolated from sf9 insect cells overexpressing the respective transporters. Vesicular transport inhibition assays used test compounds incubated with membrane vesicle preparations (total protein: 50 µg/well) and probe substrates, taurocholate (2 µM) for BSEP or Estradiol-17-beta-glucuronide (0.2 µM) for MRP2, in the absence or presence of ATP. Reaction mixtures were preincubated for 15 min at 37°C. Reactions were started by the addition of 25 µL of 12 mM MgATP or assay buffer (for background controls), preincubated separately. Reactions were stopped after 5 min by the addition of 200 µL of ice-cold washing buffer and immediate filtration via glass fiber filters mounted to a 96-well plate (filter plate). The filters were washed, dried and the amount of substrate inside the filtered vesicles determined by liquid scintillation. Cyclosporin A (20 µM) or benzbromarone (100 µM), for BSEP or MRP2, respectively, were used as positive control inhibitors. Control membranes lacking transporter expression were used as negative control.
All assays were performed in duplicate. IC50 was defined as the test article concentration needed to inhibit the maximal transporter specific accumulation by 50%. IC50 values were calculated using non-linear fitting of % inhibition versus concentration to a sigmoidal curve with a variable Hill Coefficient using GraphPad Prism 5 (GraphPad Software Inc., San Diego, CA).

The test system of experiment [1] is sandwich-cultured human hepatocytes. Kind of experiment: ERA effect on hepatobiliary disposition of d8-taurocholate (B-CLEAR sandwich culture). It is filed as cell-based. The note with it: n = 3 donors; for d8-TCA cellular accumulation (% control) / d8-TCA total accumulation (% control): 2.5 µM d8-TCA, 10 min. The procedure:
Sandwich-cultured human hepatocytes were obtained from Celsis/IVT (Baltimore, MD) or Life Technologies (Durham, NC). Donors were male (n = 3) and female (n = 1) between the ages of 31 and 62 years old. Hepatic uptake, biliary excretion and in vitro biliary clearance (Clb) were determined using the B-CLEAR® hepatocyte sandwich culture model as described by Liu et al., 1999 [34]. In this system, hepatocytes form functional bile canalicular networks while maintaining the expression and function of key uptake and efflux transporters. The canalicular system of bile pockets remains separate from the cellular culture media due to tight junctions between cells. The integrity of these tight junctions is maintained in the presence of calcium (Plus (+) buffer) while in the absence of calcium (Minus (−) buffer), these tight junctions open and release the contents of the canalicular network into the media.
A dose solution containing 2.5 µM d8-taurocholic acid (d8-TCA) was prepared in Plus (+) Buffer. Co-incubation solutions were prepared by combining d8-TCA dose solution and ERA or rifamycin-SV. Hepatocytes were washed and then conditioned for 10 min in warm Plus (+) or Minus (−) buffer with and without ERA or rifamycin-SV. Pre-incubation solutions were then removed and replaced with dose or co-incubation solutions and incubated for 10 min at 37°C. Following this 10 minute incubation, the dose or co-incubation solutions were removed and the cells were then washed three times with ice-cold Plus (+) buffer. The plates were then frozen at −80°C until processed for bioanalysis.
Study samples were stored in their original 24-well plates at −80°C until prepared for analysis. A volume of 500 µL of cell lysis solution (70∶30 methanol:water) containing 25 nM internal standard was added to each well and mixed for 20 min of mixing. The volume in each well was then transferred to a 96-well filter plate stacked on a Greiner deep well collection plate. The filter plate/collection plate was then centrifuged at 2000 rcf for 5 min. The filtrate was then evaporated to dryness under nitrogen. Samples were reconstituted in 200 µL of sample diluent (60∶40 methanol:10 mM ammonium acetate, native pH), sealed, and placed on a plate shaker for 15 min. These samples were then transferred to a Whatman 96-well 0.45 µm PVDF filter plate stacked on a Costar 3956 plate (HPLC injection plate), centrifuged at 2000 rcf for 2–3 min, and sealed with a silicon cap mat prior to LC-MS/MS analysis. d8-TCA standard spiking solutions were prepared in 50∶50 methanol:water. For a given lysate standard or control, 10 µL was added to each well of a previously frozen analytical plate. Standards representing 0.5–100 pmoles/well and QC’s at the LLQ and ULQ were prepared. These lysate standards and controls were then further processed as described above for unknown study samples. Prepared samples were filtered and analyzed by LC-MS/MS using a Shimadzu binary HPLC system (Columbia, MD) and tandem mass spectrometry using Thermo Electron TSQ® Quantum Discovery MAX™ (Waltham, MA) with an Ion Max ESI source operating in negative ion electrospray ionization mode. Results for unknowns and QCs were calculated using a standard curve based on an internal standard processing method.
Data calculations were performed using Microsoft Excel, 2010 with all values reported as mean ± standard deviation (SD). Statistical comparisons across ERA treatments were performed using analysis of variance (ANOVA) with Fisher’s PLSD post hoc analysis (Statview 5.0, SAS Institute, Cary NC); statistical significance was considered to be P<0.05. All mass values were normalized to mg protein by taking the average protein mass in the taurocholate plate determined using a BCA protein assay (Pierce Biotechnology, Rockford, IL). Cellular accumulation determined in Minus (−) buffer (Accumulation Minus (−) Buffer) represents the total mass of analyte inside the hepatocyte at the end of the incubation time period. […]

In another experiment the test system is NTCP. Further details: method as in PMID 20628435. The note with it: concentrations tested 2, 20, and 100 µM, Hartman et al. ref 29; cited from earlier work.

T1 sequence (Q92887 whole entry): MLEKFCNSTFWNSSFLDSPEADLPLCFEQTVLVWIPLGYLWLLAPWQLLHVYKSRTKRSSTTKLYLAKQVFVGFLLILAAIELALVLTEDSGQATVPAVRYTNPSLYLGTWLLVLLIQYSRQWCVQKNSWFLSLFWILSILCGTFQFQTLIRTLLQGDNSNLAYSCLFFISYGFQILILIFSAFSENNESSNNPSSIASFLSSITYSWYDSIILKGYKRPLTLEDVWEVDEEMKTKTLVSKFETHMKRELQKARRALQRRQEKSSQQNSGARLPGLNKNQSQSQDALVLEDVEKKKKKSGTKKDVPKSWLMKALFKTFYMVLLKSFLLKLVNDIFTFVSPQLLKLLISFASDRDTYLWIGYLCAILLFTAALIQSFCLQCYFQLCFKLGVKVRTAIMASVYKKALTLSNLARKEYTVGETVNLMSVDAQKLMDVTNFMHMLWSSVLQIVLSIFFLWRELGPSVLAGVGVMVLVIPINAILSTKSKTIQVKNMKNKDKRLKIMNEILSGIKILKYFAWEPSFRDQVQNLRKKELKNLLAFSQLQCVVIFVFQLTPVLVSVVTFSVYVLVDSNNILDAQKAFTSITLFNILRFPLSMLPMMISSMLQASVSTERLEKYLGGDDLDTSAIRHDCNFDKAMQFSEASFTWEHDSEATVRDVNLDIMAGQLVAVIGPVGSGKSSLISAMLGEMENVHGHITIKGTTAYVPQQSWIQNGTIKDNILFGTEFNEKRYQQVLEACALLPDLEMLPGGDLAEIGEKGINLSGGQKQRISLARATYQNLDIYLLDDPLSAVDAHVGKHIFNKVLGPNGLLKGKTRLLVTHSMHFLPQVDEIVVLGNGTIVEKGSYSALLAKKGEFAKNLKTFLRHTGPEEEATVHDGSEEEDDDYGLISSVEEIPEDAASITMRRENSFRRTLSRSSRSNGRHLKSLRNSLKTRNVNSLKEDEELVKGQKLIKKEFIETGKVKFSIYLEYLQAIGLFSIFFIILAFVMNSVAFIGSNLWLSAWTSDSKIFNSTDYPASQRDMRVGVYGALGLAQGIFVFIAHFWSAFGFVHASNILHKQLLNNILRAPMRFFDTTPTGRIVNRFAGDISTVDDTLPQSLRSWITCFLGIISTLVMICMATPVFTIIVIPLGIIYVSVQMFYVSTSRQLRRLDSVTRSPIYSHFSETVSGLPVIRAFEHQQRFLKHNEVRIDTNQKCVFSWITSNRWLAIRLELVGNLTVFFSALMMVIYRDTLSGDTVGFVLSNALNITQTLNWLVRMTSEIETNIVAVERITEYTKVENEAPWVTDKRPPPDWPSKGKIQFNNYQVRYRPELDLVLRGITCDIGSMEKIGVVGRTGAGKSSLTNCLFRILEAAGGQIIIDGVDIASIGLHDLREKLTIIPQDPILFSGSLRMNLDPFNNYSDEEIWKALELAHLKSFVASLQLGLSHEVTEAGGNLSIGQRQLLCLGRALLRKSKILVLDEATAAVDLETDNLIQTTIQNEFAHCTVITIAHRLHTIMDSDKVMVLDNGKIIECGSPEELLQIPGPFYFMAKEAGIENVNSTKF

In turn, `COC(c1ccccc1)(c1ccccc1)[C@H](Oc1nc(C)cc(C)n1)C(=O)O` [ambrisentan] yielded a 50% inhibitory concentration (IC50) against MRP2 of approximately 75 µM. For the same compound, the “d8-TCA cellular accumulation (% control)” value in experiment [1] (33 µM ERA) was determined as 71%; in experiment [1] (100 µM ERA) it was 52%. For the same compound, the “inhibition of NTCP” value in the experiment with NTCP was “did not”.

On to `COc1ccccc1Oc1c(NS(=O)(=O)c2ccc(C(C)(C)C)cc2)nc(-c2ncccn2)nc1OCCO` [bosentan], for which the IC50 on MRP2 was more than 100 µM. Besides, in experiment [1] (11 µM ERA), the “d8-TCA cellular accumulation (% control)” value worked out at 66.5±5.3%; the “d8-TCA total accumulation (% control)” value is 68.6±1.5%; the “d8-TCA in vitro biliary clearance (Clb), percent of control” value (shortened to “d8-TCA … (Clb), percent of control”) was determined as 69.2±0.1%. For the same compound, in experiment [1] (33 µM ERA), the “d8-TCA total accumulation (% control)” value was 62.6±6.6% and the “d8-TCA … (Clb), percent of control” value worked out at 58.7±11.4%. In addition, in experiment [1] (100 µM ERA), the “d8-TCA cellular accumulation (% control)” value came out at 44.5±3.6%; the “d8-TCA total accumulation (% control)” value is reported as 31.7±5.9%; the “d8-TCA biliary efflux (BEI), percent of control” value is 85.2±13.9%; the “d8-TCA … (Clb), percent of control” value worked out at 27.0±9.3%. Further, the “inhibition of NTCP” value in the experiment on NTCP is given as “inhibited”.

Compound `CCCNS(=O)(=O)Nc1ncnc(OCCOc2ncc(Br)cn2)c1-c1ccc(Br)cc1` [macitentan] showed an IC50 against MRP2 of more than 100 µM. Moreover, in experiment [1] (33 µM ERA), the “d8-TCA cellular accumulation (% control)” value is listed as 42.1±4.5%; the “d8-TCA total accumulation (% control)” value turned out to be 23.6±0.5%; the “d8-TCA biliary efflux (BEI), percent of control” value is on record as 72.9±8.0%; the “d8-TCA … (Clb), percent of control” value is 17.2±2.3%. Moreover, in experiment [1] (100 µM ERA), the “d8-TCA cellular accumulation (% control)” value was found to be 6.2±0.5%; the “d8-TCA total accumulation (% control)” value came out at 4.8±0.2%; the “d8-TCA … (Clb), percent of control” value was determined as 4.3±0.5%.

Turning to `Cc1cc2c(cc1CC(=O)c1sccc1S(=O)(=O)Nc1onc(C)c1Cl)OCO2` [sitaxsentan], the “inhibition of NTCP” value in the experiment on NTCP was “inhibited”.

As usually defined, the IC50 is the midpoint of a concentration-inhibition curve. Low values mean higher potency, high ones lower potency.

Values taken from PMC3907537, “Evaluation of the Endothelin Receptor Antagonists Ambrisentan, Bosentan, Macitentan, and Sitaxsentan as Hepatobiliary Transporter Inhibitors and Substrates in Sandwich-Cultured Human Hepatocytes” (PLoS ONE, 2014).
